pIC50, pKi: −log10 of the molar value. Active and inactive are the calls of the source. No cut-off for these calls is given here.
How the values were obtained:
[1] = molecular target: T1, Calcitonin gene-related peptide type 1 receptor (Homo sapiens, UniProt O60894+Q16602); assay: Displacement of […] expressed in HEK293 cells coexpressing human RAMP1; assay type: cell-based
[2] = Clearance in rat at 10 mg/kg, po or 2 mg/kg, iv; assay type: ADME, organism-based; conditions: in vivo
[3] = molecular target: T1, Calcitonin gene-related peptide type 1 receptor; assay: Antagonist activity at human CLR expressed in human HEK293 cells coexpressing human RAMP1 assessed as Inhibition of CGRP-induced cAMP production; assay type: functional, cell-based
[4] = Half life in rat at 2 mg/kg, iv; assay type: ADME, organism-based; set-up: dose 2 mg/kg, route intravenous; conditions: in vivo
[5] = molecular target: T1, Calcitonin gene-related peptide type 1 receptor; assay: Antagonist activity at human CLR expressed in human HEK293 cells coexpressing human RAMP1 assessed as Inhibition of CGRP-induced cAMP production in the presence of 50% human serum; assay type: functional, cell-based
[6] = Oral bioavailability in rat at 10 mg/kg in presence of lmwitor:tween; assay type: ADME, organism-based; conditions: in vivo
[7] = Oral bioavailability in rat at 10 mg/kg in presence of methylcellulose; assay type: ADME, organism-based; conditions: in vivo
[8] = Oral bioavailability in rat at 5 mg/kg in presence of PEG400:water; assay type: ADME, organism-based; conditions: in vivo
[9] = Clearance in rat at 5 mg/kg, po or 1 mg/kg, iv; assay type: ADME, organism-based; conditions: in vivo
[10] = Half life in rat at 1 mg/kg, iv; assay type: ADME, organism-based; set-up: dose 1 mg/kg, route intravenous; conditions: in vivo
[11] = Oral bioavailability in rat at 5 mg/kg in presence of lmwitor:tween; assay type: ADME, organism-based; conditions: in vivo
[12] = Oral bioavailability in rhesus monkey at 2 mg/kg in presence of methylcellulose; assay type: ADME, organism-based, Macaca mulatta; conditions: in vivo
[13] = Half life in rat at 2mg/kg, iv; assay type: ADME, organism-based; conditions: in vivo
[14] = Half life in rhesus monkey at 0.5 mg/kg, iv; assay type: ADME, organism-based, Macaca mulatta; set-up: dose 0.5 mg/kg, route intravenous; conditions: in vivo
Rhesus monkey [15] = assay: Inhibition of capsaicin-induced vasodilation in orally dosed rhesus monkey; assay type: functional, organism-based; conditions: Macaca mulatta
[16] = Oral bioavailability in dog at 1 mg/kg in presence of methylcellulose; assay type: ADME, organism-based, Canis lupus familiaris; conditions: in vivo
Rhesus monkey [17] = assay: Inhibition of capsaicin-induced vasodilation in orally dosed rhesus monkey at 5.5 uM plasma level; assay type: functional, organism-based; conditions: Macaca mulatta
[18] = Clearance in dog at 1 mg/kg, po and 0.5 mg/kg, iv; assay type: ADME, organism-based, Canis lupus familiaris; conditions: in vivo
[19] = Clearance in rat at 10 mg/kg, po and 2 mg/kg, iv; assay type: ADME, organism-based; conditions: in vivo
[20] = Half life in dog at 0.5 mg/kg, iv; assay type: ADME, organism-based, Canis lupus familiaris; set-up: dose 0.5 mg/kg, route intravenous; conditions: in vivo
[21] = Clearance in rhesus monkey at 2 mg/kg, po and 0.5 mg/kg, iv; assay type: ADME, organism-based, Macaca mulatta; conditions: in vivo

T1 sequence (Q16602 whole entry, one chain of several): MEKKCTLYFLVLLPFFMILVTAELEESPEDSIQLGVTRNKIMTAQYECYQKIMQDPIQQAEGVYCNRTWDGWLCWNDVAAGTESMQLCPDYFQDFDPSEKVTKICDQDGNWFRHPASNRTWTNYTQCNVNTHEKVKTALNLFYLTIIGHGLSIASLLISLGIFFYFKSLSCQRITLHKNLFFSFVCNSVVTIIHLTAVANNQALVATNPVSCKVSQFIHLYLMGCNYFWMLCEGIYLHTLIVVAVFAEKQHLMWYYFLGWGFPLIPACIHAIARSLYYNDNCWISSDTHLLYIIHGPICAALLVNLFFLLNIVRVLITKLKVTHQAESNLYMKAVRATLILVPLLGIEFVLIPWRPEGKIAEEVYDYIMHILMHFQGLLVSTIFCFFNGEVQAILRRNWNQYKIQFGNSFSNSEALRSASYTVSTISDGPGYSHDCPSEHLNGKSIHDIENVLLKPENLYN

Q: With `CN1C(=O)NC(=O)[C@]12Cc1ccc(NC(=O)Cn3c(=O)n(-c4ccccn4)c4ccccc43)c(F)c1C2` as the compound, how does the pKi [1] read?
A: 7.26

Q: With `CN1C(=O)NC(=O)C12Cc1cc3ncc(Cn4c(=O)n(-c5ccccn5)c5ccccc54)nc3cc1C2` (centres undefined) as the compound, how does the pKi [1] read?
A: 6.73

Q: For `CN1C(=O)NC(=O)[C@@]12Cc1cc3ccc(CN4CC5CC(=O)Nc6cccc4c65)nc3cc1C2` (some centres undefined), which clearance [2] is on record?
A: 11 mL/min/kg

Q: And the pKi [1]?
A: 8.82

Q: And the pIC50 [3]?
A: 8.14

Q: What about the half-life [4] of the same compound?
A: 66 min

Q: And the pIC50 [5]?
A: 7.37

Q: And the bioavailability [6]?
A: 41%

Q: Which bioavailability [7] does the source give for `CCC12CC(=O)Nc3cccc(c31)N(Cc1ccc3cc4c(cc3n1)C[C@@]1(C4)C(=O)NC(=O)N1C)C2` (some centres undefined) here?
A: 65%

Q: And the clearance [2]?
A: 44 mL/min/kg

Q: And the pKi [1]?
A: 8.89

Q: What about the pIC50 [3] of the same compound?
A: 8.14

Q: And the half-life [4]?
A: 66 min

Q: And the pIC50 [5]?
A: 7.36

Q: With `CN1C(=O)Cn2c(=O)n(Cc3ccc4cc5c(cc4n3)C[C@@]3(C5)C(=O)NC(=O)N3C)c3cccc1c32` as the compound, how does the pKi [1] read?
A: 8.52

Q: What about the pIC50 [3] of the same compound?
A: 7.48

Q: And the pIC50 [5]?
A: 5.92

Q: With `CN1C(=O)NC(=O)[C@]12Cc1cc3ccc(Cn4c(=O)n(-c5ccccn5)c5ccccc54)nc3cc1C2` as the compound, how does the pKi [1] read?
A: 7.77

Q: What does the source list for `O=C1Cn2c(=O)n(Cc3ccc4cc5c(cc4n3)C[C@@]3(C5)C(=O)Nc4ncccc43)c3cccc(c32)N1`?
A: pKi [1]: 10.64; pIC50 [3]: 10.11; bioavailability [8]: 0%; clearance [9]: 40 mL/min/kg; half-life [10]: 27 min; pIC50 [5]: 8.60

Q: With `CN1C(=O)Cn2c(=O)n(Cc3ccc4cc5c(cc4n3)C[C@@]3(C5)C(=O)Nc4ncccc43)c3cccc1c32` as the compound, how does the pKi [1] read?
A: 9.39

Q: What about the pIC50 [3] of the same compound?
A: 8.92

Q: What about the pIC50 [5] of the same compound?
A: 7.02

Q: For `CCC12CC(=O)Nc3cccc(c31)N(Cc1ccc3cc4c(cc3n1)C[C@@]1(C4)C(=O)Nc3ncccc31)C2` (some centres undefined), which clearance [2] is on record?
A: 11 mL/min/kg

Q: And the pKi [1]?
A: 10.14

Q: And the pIC50 [3]?
A: 9.17

Q: What about the half-life [4] of the same compound?
A: 36.6 min

Q: What about the pIC50 [5] of the same compound?
A: 8.82

Q: And the bioavailability [6]?
A: 9%

Q: Which results are given for `CC12CC(=O)Nc3cccc(c31)N(Cc1ccc3cc4c(cc3n1)C[C@@]1(C4)C(=O)Nc3ncccc31)C2` (some centres undefined)?
A: clearance [2]: 28 mL/min/kg; pKi [1]: 9.92; pIC50 [3]: 9.28; half-life [4]: 37.2 min; pIC50 [5]: 8.89; bioavailability [6]: 6%

Q: With `CN1C(=O)NC(=O)[C@@]12Cc1cc3nc(Cn4c(=O)n(-c5ccccn5)c5ccccc54)oc3cc1C2` as the compound, how does the pKi [1] read?
A: 5.22

Q: With `CN1C(=O)NC(=O)[C@@]12Cc1cc3ccc(Cn4c(=O)n5c6c(cccc64)NC(=O)C5)nc3cc1C2` as the compound, how does the pKi [1] read?
A: 9.52

Q: What about the pIC50 [3] of the same compound?
A: 8.77

Q: What about the pIC50 [5] of the same compound?
A: 7.85

Q: For `O=C1CCc2ccccc2N1Cc1ccc2cc3c(cc2n1)C[C@@]1(C3)C(=O)Nc2ncccc21`, which bioavailability [7] is on record?
A: 3%

Q: And the clearance [2]?
A: 56 mL/min/kg

Q: And the pKi [1]?
A: 8.85

Q: What about the pIC50 [3] of the same compound?
A: 8.33

Q: And the half-life [4]?
A: 21 min

Q: And the pIC50 [5]?
A: 7.09

Q: With `O=C1CC2CN(Cc3ccc4cc5c(cc4n3)C[C@@]3(C5)C(=O)Nc4ncccc43)c3cccc(c32)N1` (some centres undefined) as the compound, how does the pKi [1] read?
A: 9.26

Q: And the pIC50 [3]?
A: 9.07

Q: What about the bioavailability [11] of the same compound?
A: 8%

Q: And the clearance [9]?
A: 19 mL/min/kg

Q: And the half-life [10]?
A: 19.2 min

Q: And the pIC50 [5]?
A: 8.39

Q: With `CN1C(=O)NC(=O)[C@]12Cc1cc(F)c(NC(=O)Cn3c(=O)n(-c4ccccn4)c4ccccc43)cc1C2` as the compound, how does the pKi [1] read?
A: 6.14

Q: For `CN1C(=O)NC(=O)[C@@]12Cc1cc3ccc(CN4CC5(C)CC(=O)Nc6cccc4c65)nc3cc1C2` (some centres undefined), which bioavailability [7] is on record?
A: 45%

Q: What about the bioavailability [12] of the same compound?
A: 38%

Q: What about the half-life [13] of the same compound?
A: 96 min

Q: What about the half-life [14] of the same compound?
A: 102 min

Q: What about the clearance [2] of the same compound?
A: 14 mL/min/kg

Q: What about the EC90 (Rhesus monkey [15]) of the same compound?
A: 5500 nM

Q: And the pKi [1]?
A: 9.28

Q: And the pIC50 [3]?
A: 8.66

Q: What about the half-life [4] of the same compound?
A: 96 min

Q: What about the bioavailability [16] of the same compound?
A: 59%

Q: What about the inhibition (Rhesus monkey [17]) of the same compound?
A: Active

Q: What about the clearance [18] of the same compound?
A: 1.6 mL/min/kg

Q: And the clearance [19]?
A: 14 mL/min/kg

Q: What about the pIC50 [5] of the same compound?
A: 8.19

Q: And the half-life [20]?
A: 366 min

Q: What about the bioavailability [6] of the same compound?
A: 34%

Q: What about the clearance [21] of the same compound?
A: 5.6 mL/min/kg

Q: Which results are given for `CN1C(=O)NC(=O)[C@@]12Cc1cc3ccc(CN4C(=O)CCc5ccccc54)nc3cc1C2`?
A: bioavailability [7]: 10%; clearance [2]: 38 mL/min/kg; pKi [1]: 8.05; pIC50 [3]: 7.30; half-life [4]: 42 min; pIC50 [5]: 6.07
